Values of other authors, collected in US10293050B2, “Macrolide dosage forms” (Micell Technologies, Inc., priority 2010, dated 2019).

Key:
[1] = not given; remark: listed apart in the source
[2] = not given; remark: listed apart in the source

aqueous solubility: poor aqueous solubility | protein binding [1]: high protein binding | bioavailability ([2]; Rapamune oral tablets or solution): < 14% | hepatic biotransformation ([2]; in vivo): extensive hepatic biotransformation | blood concentrations ([2]; once daily oral dosing, immunosuppressive dose 2 or 5 mg daily): 6 to 50 ng/mL
SMILES: CO[C@H]1C[C@@H]2CC[C@@H](C)[C@@](O)(O2)C(=O)C(=O)N2CCCC[C@H]2C(=O)O[C@H]([C@H](C)C[C@@H]2CC[C@@H](O)[C@H](OC)C2)CC(=O)[C@H](C)/C=C(\C)[C@@H](O)[C@@H](OC)C(=O)[C@H](C)C[C@H](C)/C=C/C=C/C=C/1C [Rapamycin]
